Laboratory results: patent EP0545991B1, “PEPTIDES THAT BLOCK HUMAN IMMUNODEFICIENCY VIRUS INFECTIONS AND METHODS OF USE THEREOF” (VAHLNE, Anders, priority 1990, dated 1992)
Read-outs that look alike come from different tables or passages of the source. Where a SMILES comes first, the peptide text is derived from it.

Experiments:
HTLV IIIB/H9 N.Y. [1] = tested on: HTLV IIIB/H9 N.Y.
Procedure: (§1) Table 1 lists the peptides and their amino acid sequences tested against the following virus/cell systems: • (1) HTLV-111B/H9 Denmark (obtained from Denmark, Bent Faber-Vestergard); • (2) HTLV-111B/H9 New York (obtained from Dr. William Hall, North Shore Hospital, Manhasset, N.Y.); and • (3) ELI-1/HUT (obtained from Dr. Levy, San Francisco, CA).
(§2) Virus at 100 50% tissue culture infectious doses (TCID50) and peptides at concentrations of 250 and 25 µg/ml were added to the cells simultaneously and incubated for 2 hours at 4°C with frequent stirring. Subsequently, the temperature was increased to 37°C and the mixtures were subjected to a second incubation for 2 hours. Following the second incubation, the cells were centrifuged at 325 x g and washed once in RPMI medium (Gibco Laboratories, NY). Cells, at a concentration of 5 x 10^5/ml, were then added to 24 multidish well plates at a final volume of 1.5 ml of growth medium (RPMI supplemented with 10% fetal calf serum (FCS), antibiotics and polybrene (2 µg/ml)), with the addition of peptides at dilutions of 250 or 25 µg/ml. […] As additional controls, two HIV infected cell cultures (designated pos. controls 1 and 2, Tables 3-5) and two uninfected cell cultures (designated neg. controls 1 and 2) were used.
(§3) Infected cells were continuously monitored for formation of syncytia and the growth medium supernatants were analyzed at days 9-12 p.i. for p24 antigen which is an indicator of HIV replication.
(§4) Briefly, the following protocol was used for detection of the p24 antigen. HIV p24 antigen was determined using a rabbit anti-p24 polyclonal antiserum as capture antibody and a biotinylated rabbit anti-p24 polyclonal antibody was used as detecting antibody in an avidin-horse radish peroxidase (HRP) ELISA. The sensitivity of the assay allowed detection of approximately 50 pg of p24 antigen per ml supernatant. […] Serial dilutions of the supernatants were made so as to detect p24 concentration in the most accurate range (< 2.0 absorbance units).
(§5) At the end of the experiment, the cells were collected and fixed on slides with acetone according to standard procedures as described in Jeansson et al., Exp. Cell Res., 161:181-188 (1985). The number of infected cells were then determined by indirect immunofluorescence using a human HIV positive serum diluted 1/100 and FITC conjugated antihuman IgG (Bio Merieux, France) diluted 1/200.
(§6) In tables 3-6, the p24 content of the supernatants of infected cells was determined by diluting the supernatants of infected cells in serial tenfold dilutions (1/10, 1/100, 1/1000 and 1/10,000) and analyzing in ELISA as described above. Results are indicated by the absorbance values (454nm) of respective dilutions.
The peptides in their carboxy and amido forms were obtained from Bachem Feinchemikalien AG (Switzerland, GPG-NH2 Bachem, GPG-COOH, Bachem, PG-NH2 Bachem and PG-COOH Bachem) and Syntello (Sweden, GPG-NH2 Syntello). The effectiveness of the peptides was determined by both p24 production and syncytia formation as described in Example 2.
In tables 8 and 9, the p24 content of the supernatants of infected cells was determined by diluting the supernatants in serial tenfold dilutions (1/10, 1/100, 1/1,000) and analyzing by ELISA as described in Example 2. Results are indicated by the absorbance values (454 nm) of respective dilutions.

[2] = tested on: HTLV-IIIB replication in H9 cells; experiment: Dose response and combination experiments, p24 ELISA; type: cell-based, HIV; conditions: Human immunodeficiency virus 1, IIIB, H9, read-out: approximate ID50 (p24 antigen reduced by 50%), supernatants diluted 1/5
Procedure: The results in Tables 10 and 11 were obtained as described in Example 2. The supernatants were tested for p24 on day 8 p.i. Supernatants were serially diluted (1/5, 1/50 and 1/500) and analyzed by ELISA as described in Example 2.

ELI1/HUT [3] = tested on: ELI1/HUT
Procedure: as §1, §2, §3, §4, §5, §6

HTLV IIIB/H9 Denmark = tested on: HTLV IIIB/H9 Denmark
Procedure: as §1, §2, §3, §4, §5, §6

[4] = tested on: herpes simplex virus type I (HSV-1) strain McIntyre; experiment: Yield inhibition assay of HSV-1 in GMK cells; type: cell-based
Procedure: To determine the specificity and toxicity of the peptides, Tyr-Arg-Gly-Pro-Gly, Gly-Pro-Gly and Arg-Gly-Pro-Gly were tested in (1) a plaque reduction assay and (2) a yield inhibition assay of herpes simplex virus type I (HSV-1) strain McIntyre.
The yield inhibition assay was performed as follows: HSV-1 was inoculated at a multiplicity of 0.5 pfu per GMK cell in the presence of the respective peptide at concentrations of 250 and 25 µg/ml. Virus adsorption was performed for 60 min. at room temperature. The cells were then rinsed five times with Hanks' Balanced Salt Solution (BSS) and incubated in a 5% CO2 atmosphere at 37°C with maintenance medium containing either peptides or acyclovir, according to the methods described in "Proceedings of a Symposium on Acyclovir", The American Journal of Medicine, July 20, (1982) which is incorporated herein by reference, or without any additives. Twenty-four hours p.i. the cells were freeze-thawed, scraped into the medium and tested for virus yield by the infectivity assay as outlined in Example 2. The results are shown in Table 7 where the plaque reduction values are the mean of two cultures and the yield of HSV-1 after 24 hours is the mean of two determinations and the values are presented in millions of pfu/ml.

[5] = In vivo toxicity, growth of mice after intraperitoneal injections; conditions: intraperitoneal injections starting at an age of 6 days; compared with controls
Source text: In an in vivo test of the toxicity of Gly-Pro-Gly, groups of mice were given intraperitoneal injections of the substance starting at an age of 6 days. Figure 3 also graphically depicts the results. […] The peptides are thus non-toxic even when given in large doses.

[6] = tested on: peripheral blood mononuclear cells; experiment: Viability of mononuclear cells, flow cytometry after propidium iodide; type: cell-based, human
Procedure: The possibility that Gly-Pro-Gly may affect the viability and/or function of normal human circulating lymphomonocytic cells was examined by adding Gly-Pro-Gly to unfractionated and T cell enriched (CD2^+ = nominal T cells; CD4^+ = putative helper/inducer T cell subset; CD8+ = putative cytotoxic/suppressor T cell subset) peripheral blood mononuclear cell suspensions from healthy normal blood donors.
Thus, the viability of peripheral blood mononuclear cells exposed to Gly-Pro-Gly (2 mM, 4 days) was 99.67% and that of corresponding unexposed cells was 99.66% (mean of 4 experiments).

HTLV IIIB/H9 N.Y. [7] = experiment: Infectivity assay (p24 ELISA, syncytia formation, indirect immunofluorescence), HTLV-IIIB/H9 New York; type: cell-based, HIV
ELI1/HUT [8] = experiment: Infectivity assay (p24 ELISA, indirect immunofluorescence), ELI-1/HUT; type: cell-based, HIV
HIV = type: cell-based
Procedure: Virus at 100 50% tissue culture infectious doses (TCID50) and peptides at concentrations of 250 and 25 µg/ml were added to the cells simultaneously and incubated for 2 hours at 4°C with frequent stirring. Subsequently, the temperature was increased to 37°C and the mixtures were subjected to a second incubation for 2 hours. […] Cells, at a concentration of 5 x 10^5/ml, were then added to 24 multidish well plates at a final volume of 1.5 ml of growth medium (RPMI supplemented with 10% fetal calf serum (FCS), antibiotics and polybrene (2 µg/ml)), with the addition of peptides at dilutions of 250 or 25 µg/ml. […]
as §3
as §4, with “ELISA.” for “ELISA. The sensitivity of the assay allowed detection of approximately 50 pg of p24 antigen per ml supernatant.”, “units). […]” for “units).”

Cc1cn([C@H]2C[C@H](N=[N+]=[N-])[C@@H](CO)O2)c(=O)[nH]c1=O [AZT, azidothymidine]
# OF SYNCYTIA/WELL Day 9 (HTLV IIIB/H9 N.Y. [1]; 0.2 µM): 22 | # OF SYNCYTIA/WELL Day 14 (HTLV IIIB/H9 N.Y. [1]; 0.2 µM): >100 | % OF POS CELLS (HTLV IIIB/H9 N.Y. [1]; 0.2 µM): 10% | # OF SYNCYTIA/WELL Day 14 (HTLV IIIB/H9 N.Y. [1]; 0.2 µM, Table 6): 29 | PERCENTAGE OF AG POS CELLS (HTLV IIIB/H9 N.Y. [1]; 0.2 µM, Table 6): 30 | # OF SYNCYTIA/WELL Day 9 (HTLV IIIB/H9 N.Y. [1]; 2 µM): 11 | # OF SYNCYTIA/WELL Day 14 (HTLV IIIB/H9 N.Y. [1]; 2 µM): >100 | % OF POS CELLS (HTLV IIIB/H9 N.Y. [1]; 2 µM): 10-15% | # OF SYNCYTIA/WELL Day 14 (HTLV IIIB/H9 N.Y. [1]; 2 µM, Table 6): 4 | PERCENTAGE OF AG POS CELLS (HTLV IIIB/H9 N.Y. [1]; 2 µM, Table 6): 0.5-2 | # OF SYNCYTIA/WELL Day 9 (HTLV IIIB/H9 N.Y. [1]; 20 µM): 0 | # OF SYNCYTIA/WELL Day 14 (HTLV IIIB/H9 N.Y. [1]; 20 µM): 11 | % OF POS CELLS (HTLV IIIB/H9 N.Y. [1]; 20 µM): 0-1% | # OF SYNCYTIA/WELL Day 14 (HTLV IIIB/H9 N.Y. [1]; 20 µM, Table 6): 0 | IC50 ([2]; day 8 postinfection): ~400 nM | IC50 ([2]; twelve days after infection): ~3200 nM | PERCENTAGE OF POS CELLS (ELI1/HUT [3]; 0.2 µM): 10 | PERCENTAGE OF POS CELLS (ELI1/HUT [3]; 2 µM): 10 | PERCENTAGE OF POS CELLS (ELI1/HUT [3]; 20 µM): 10-15 | # OF SYNCYTIA/WELL Day 9 (HTLV IIIB/H9 Denmark; 0.2 µM): 16 | % OF POS CELLS (HTLV IIIB/H9 Denmark; 0.2 µM): 5-10% | # OF SYNCYTIA/WELL Day 9 (HTLV IIIB/H9 Denmark; 2 µM): 10 | % OF POS CELLS (HTLV IIIB/H9 Denmark; 2 µM): 5-8% | # OF SYNCYTIA/WELL Day 9 (HTLV IIIB/H9 Denmark; 20 µM): 0 | % OF POS CELLS (HTLV IIIB/H9 Denmark; 20 µM): 0.1-1%

Nc1nc2c(ncn2COCCO)c(=O)[nH]1 [Acyclovir, acyclovir]
yields of HSV-1 ([4]; 2 µM): significantly reduced | YIELD OF HSV AFTER 24 HOURS ([4]; 2 µM, mean of two determinations): 0.9 millions of pfu/ml | activity at 2 µM ([4]; Human alphaherpesvirus 1, GMK, 24 h, read-out: YIELD OF HSV AFTER 24 HOURS PERCENT OF CONTROL): 3%

NCC(=O)N1CCC[C@H]1C(=O)NCC(N)=O [GPG, Gly-Pro-Gly-NH2] (H-Gly-Pro-Gly-NH2)
influence on the growth of mice [5]: no significant influence | viability of peripheral blood mononuclear cells ([6]; 2 mM, 4 days, mean of 4 experiments, unexposed cells 99.66%): 99.67% | effect on viability of cultured monocytes and lymphocytes ([6]; doses as high as 2 mM, exposure as long as 4 days): did not appreciably affect the viability

Arg-Gly-Pro-Gly-Arg (RGPGR; printed: Arg-Gly-Pro-Gly-Arg)
# OF SYNCYTIA/WELL Day 9 (HTLV IIIB/H9 N.Y. [7]; 25 µg/ml): 14 | # OF SYNCYTIA/WELL Day 14 (HTLV IIIB/H9 N.Y. [7]; 25 µg/ml): >100 | % OF POS CELLS (HTLV IIIB/H9 N.Y. [7]; 25 µg/ml): 5-10% | p24 1/10 (HTLV IIIB/H9 N.Y. [7]; 25 µg/ml): 2.16 absorbance (454 nm) | p24 1/100 (HTLV IIIB/H9 N.Y. [7]; 25 µg/ml): 0.853 absorbance (454 nm) | p24 1/1,000 (HTLV IIIB/H9 N.Y. [7]; 25 µg/ml): 0.268 absorbance (454 nm) | p24 1/10,000 (HTLV IIIB/H9 N.Y. [7]; 25 µg/ml): 0.145 absorbance (454 nm) | # OF SYNCYTIA/WELL Day 9 (HTLV IIIB/H9 N.Y. [7]; 250 µg/ml): 14 | # OF SYNCYTIA/WELL Day 14 (HTLV IIIB/H9 N.Y. [7]; 250 µg/ml): >100 | % OF POS CELLS (HTLV IIIB/H9 N.Y. [7]; 250 µg/ml): 10% | p24 1/10 (HTLV IIIB/H9 N.Y. [7]; 250 µg/ml): 2.116 absorbance (454 nm) | p24 1/100 (HTLV IIIB/H9 N.Y. [7]; 250 µg/ml): 0.974 absorbance (454 nm) | p24 1/1,000 (HTLV IIIB/H9 N.Y. [7]; 250 µg/ml): 0.334 absorbance (454 nm) | p24 1/10,000 (HTLV IIIB/H9 N.Y. [7]; 250 µg/ml): 0.15 absorbance (454 nm) | PERCENTAGE OF POS CELLS (ELI1/HUT [8]; 25 µg/ml): 10-15 | p24 1/10 (ELI1/HUT [8]; 25 µg/ml): 3 absorbance (454 nm) | p24 1/100 (ELI1/HUT [8]; 25 µg/ml): 2.296 absorbance (454 nm) | p24 1/1,000 (ELI1/HUT [8]; 25 µg/ml): 0.745 absorbance (454 nm) | p24 1/10,000 (ELI1/HUT [8]; 25 µg/ml): 0.263 absorbance (454 nm) | PERCENTAGE OF POS CELLS (ELI1/HUT [8]; 250 µg/ml): 10-15 | p24 1/10 (ELI1/HUT [8]; 250 µg/ml): 3 absorbance (454 nm) | p24 1/100 (ELI1/HUT [8]; 250 µg/ml): 1.999 absorbance (454 nm) | p24 1/1,000 (ELI1/HUT [8]; 250 µg/ml): 0.788 absorbance (454 nm) | p24 1/10,000 (ELI1/HUT [8]; 250 µg/ml): 0.339 absorbance (454 nm) | infection of treated cells by p24 synthesis and syncytia formation (HIV; Tables 3-5): became infected | prevention of HIV infection by p24 levels and syncytia formation (HIV; Tables 3 to 6): did not prevent HIV infection
